Like-named read-outs stand apart in the source and are kept apart here.
Legend:
[1] = Toxicity studies comparing diazolidinyl urea with formaldehyde; assay type: in vivo; conditions: for LD50: route and species not given
From the text: Unlike the typical histological fixing agents, the active agents of the invention have extremely low toxicity. For example, toxicity studies comparing diazolidinyl urea of the invention with formaldehyde of the prior art show the following: […]

[2] = tested on: albumin; conditions: 24 hours incubation
Procedure: Formaldehyde cross-links with itself and proteins to obscure the antigen. To determine if this is true, diazolidinyl urea was added to the protein, albumin.

[3] = tested on: RBC's; assay: Relative RBC fixation detected by adding RBC lysing agent; assay type: cell-based; conditions: 6% w/v solution, 24 hours, 22° C
Procedure: (§1) A 6% w/v solution of each compound was used and samples tested at 24 hours (22° C). […] Relative RBC fixation was detected by adding known RBC lysing agent. […] Fixing is relative and depends on how long you want cells or tissues to remain fixed.

[4] = tested on: WBC's; assay: WBC fixation (cells do not disintegrate or clump after removal of compound); assay type: cell-based; conditions: 6% w/v solution, 24 hours, 22° C
Procedure: as §1

[5] = Formaldehyde content or release; assay type: physicochemical
[6] = tested on: 6C3HED lymphosarcoma; assay: Tumor immunization with fixed ascites cells and challenge with viable cells; assay type: in vivo, C3H mice; conditions: cells fixed in 3% agent; two immunizations; challenge 100,000 viable cells i.p.; ">65" is given as "No deaths at 65 days"
Procedure: (§2) Tumor Immunization. 6C3HED lymphosarcoma was grown in C3H mice as ascites (ascites cause collection of fluid in the peritoneal cavity). The ascites cells were then washed in phosphate buffered saline (PBS) containing 3% IDU, 3% Glydant, or 3% Dimethylol urea. The cells were then placed at 6° C. for 48 hours.
As a control for immunization, cells were also washed into PBS containing 3% para formaldehyde and held under the same conditions. After 48 hours, all the cell groups were washed into PBS to remove the fixatives. The cell count was adjusted to 200,000/ml. Five C3H mice were injected with each of the cell groups for the first immunization. The procedure was repeated two weeks later.
The immunized mice were challenged with 100,000 viable 63HED ascites cells by intraperitoneal injection. The efficacy of the immunization was determined by the average death time for each group of mice.

[7] = tested on: human white blood cells; assay: Stabilization of white blood cells for flow cytometry (leukocyte positive control); assay type: cell-based
From the text: Leukocyte Positive Control Check for Antigen-Antibody Studies. Positive control methods are needed to verify the performance of reagents, preparation methods, staining procedures as well as the performance of the flow cytometer instrumentation itself. This requires a preparation of human white blood cells, preferably with a mixed distribution of leukocytes (lymphocytes, monocytes, and granulocytes), to evaluate the performance of the procedure before it is used to evaluate subject tissues, cells, or cell components. While much of the methodology used in this procedure is familiar to those skilled in the art, this invention is novel in its use of imidazolidinyl urea (IDU) as a cell stabilizer, the use of polyethylene glycol to reduce damage to the white blood cells during processing, the use of PMSF to inhibit protease activity, and the process itself.
The invention discloses a new method of producing a positive control check material with significant advances over the prior art. Production is begun by placing one pack of human white blood cells, obtainable from commercial blood banks, in each bottle of the centrifuge. Samples from each pack are placed into a plastic tube for screening on the flow cytometer. Because of the considerable variation from donor to donor in cluster designation antigen sites, only packs with similar properties are pooled. Each product pool should be limited to a particular ABO blood type to prevent clumping as a result of a histoin-compatibility reaction between the cells. The samples are placed into plastic tubes rather than glass because unfixed white blood cells may be activated by the glass causing them to adhere to the glass and each other.
The cells are prefixed 1:1 with 1% IDU in phosphate buffered saline ethylenediaminetetraacetic acid (PBS-EDTA) at 6° C. for one hour. […] The cells and all diluents used in the processing must be kept at 6° C. at all times by use of refrigeration and a chiller bath to reduce the amount of cell damage which alters the scattergram.
The bottle are next centrifuged at 900 rpm for 10 minutes, and the supernatant is removed. This angular velocity is sufficient to pellet the white blood cells without damaging them. Ammonium chloride tris, 200 ml/bottle set at 6° C. for 20-30 minutes, is then used to lyse the red blood cells.
A second centrifugation follows, again at 900 rpm for 10 minutes, and the supernatant is removed. Next 250 ml/bottle of ammonium chloride tris are added at 6° C. or 45-60 minutes, with 60 minutes usually ensuring complete lysis of the red blood cells.
The material is then centrifuged a third time at 900 rpm for 10 minutes and then the supernatant is removed. […]

[8] = tested on: 6C3HED lymphosarcoma ascites cells; assay: Vital staining of ascites cells held in fixative 48 hours; assay type: cell-based, C3H mice; conditions: 3% in PBS, 6° C.
Procedure: as §2

[9] = tested on: tetanus toxin; assay type: in vivo, Swiss mice
[10] = solution (Glydant), as such (Suttocide)

diazolidinyl urea
Dermal Toxicity ([1]; in vivo): 2000 mg/kg
Inhalation Toxicity ([1]; in vivo): None
LD50 [1]: 2570 mg/kg
Disc-gel electrophoresis result with albumin [2]: no change in the rate of migration of the protein
Fixation of RBC's [3]: Fixes both RBC's and WBC's
Fixation of WBC's [4]: Fixes both RBC's and WBC's
Formaldehyde content [5]: 1-2 ppm

O=C(NCO)NCO [Dimethylol urea, dimethylol urea]
Average Death Days [6]: > 65 days

O=C(O)CNCO [Suttocide, Sodium hydroxymethyl glycinate]
Fixation of RBC's [3]: Fixes RBC's and WBC's
Fixation of WBC's [4]: Fixes RBC's and WBC's
Formaldehyde content [5, 10]: 1%

imidazolidinyl urea
Effect on white blood cells, prefixation ([7]; 1% IDU in PBS-EDTA, 1:1, 6° C., one hour): stabilize the white blood cells without interfering with the lysis of the red blood cells
Effect on cells, fixation ([7]; 3% IDU, 6° C., 2 days): stabilizes the cells for use on the flow cytometer
Effect on cells, fixation at higher concentrations ([7]; IDU concentrations higher than 3%): causing cells to lose the cluster designation marker and produce scatterplot changes
Effect on cells, fixation at lower concentrations ([7]; IDU concentrations lower than 3%): reducing stability
Viability by vital staining [8]: none of the cells were viable
Average Death Days [6]: > 65 days
percent increase in antibody titer over formalin, 14 Days ([9]; 14 days): 200%
percent increase in antibody titer over formalin, 28 Days ([9]; 28 days): 560%
Fixation of RBC's [3]: Fixes both RBC's and WBC's
Fixation of WBC's [4]: Fixes both RBC's and WBC's
Formaldehyde release [5]: Decomposition releases formaldehyde

O=[N+]([O-])C(Br)(CO)CO [Bronopol, 2-bromo-2-nitropropane-1,3-diol]
Fixation of RBC's [3]: Fixes both RBC's and WBC's
Fixation of WBC's [4]: Fixes both RBC's and WBC's
Formaldehyde release [5]: Decomposition liberates formaldehyde

para formaldehyde [Control, reference compound]
Average Death Days [6]: 10 days

C=O [Formaldehyde, formaldehyde, reference compound]
Dermal Toxicity ([1]; in vivo): 270 mg/kg
Inhalation Toxicity ([1]; in vivo): 500 mg/kg
LD50 ([1]; in vivo, read-out: LD50): 800 mg/kg
Disc-gel electrophoresis result with albumin [2]: a large number of multimers and insoluble proteins result

CC1(C)C(=O)N(CO)C(=O)N1CO [Glydant, Dimethylol-5,5-dimethylhydantoin]
Viability by vital staining [8]: none of the cells were viable
Average Death Days [6]: > 65 days
Fixation of RBC's [3]: Fixes both RBC's and WBC's
Fixation of WBC's [4]: Fixes both RBC's and WBC's
Formaldehyde content [5, 10]: 2.1%

From patent US5460797A, “Method for fixing tissues and cells for analysis using oxazolidine compounds” (Streck Laboratories, Inc., priority 1994, dated 1995)
